What is called inhibition is the drop in the measured response relative to a control, in per cent.

Each structure is given as a SMILES string. Some results are limits rather than exact numbers.

In one assay the target is T1, CYP4A (Homo sapiens, UniProt Q02928).
T1 construct: purchased; host or cells: bacterial membranes ('bactosome')
T1 sequence (Q02928 5-519): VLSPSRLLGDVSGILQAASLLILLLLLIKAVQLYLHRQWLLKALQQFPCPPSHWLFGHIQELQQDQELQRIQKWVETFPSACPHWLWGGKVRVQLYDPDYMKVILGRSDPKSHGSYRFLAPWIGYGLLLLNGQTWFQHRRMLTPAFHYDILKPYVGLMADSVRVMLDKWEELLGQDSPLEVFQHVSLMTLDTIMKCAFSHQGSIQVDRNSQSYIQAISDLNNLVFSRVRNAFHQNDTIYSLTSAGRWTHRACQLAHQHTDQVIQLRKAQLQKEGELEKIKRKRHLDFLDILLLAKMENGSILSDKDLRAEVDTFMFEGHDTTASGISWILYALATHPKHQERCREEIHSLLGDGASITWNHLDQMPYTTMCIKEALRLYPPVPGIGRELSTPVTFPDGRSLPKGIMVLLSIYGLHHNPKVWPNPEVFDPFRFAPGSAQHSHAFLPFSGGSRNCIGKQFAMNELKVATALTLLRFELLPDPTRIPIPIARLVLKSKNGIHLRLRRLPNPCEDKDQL
The assay is described as follows: CYP4A enzyme assay (luminescence, Luciferin-ME). As to conditions: Compound concentration 5 μM; 50%-70%; read-out: % Inhibition 50%-70%. It is filed as biochemical. How it is done:
The CYP4A inhibitory activity of the above compounds of the examples was measured. The reagents used in the experiment were commercially available, and were prepared and used when necessary. The device used for measuring activity was SpectraMax of MOLECULAR DEVICES.
CYP4A bactosome and the compounds to be evaluated (5 μM) were each diluted in assay buffer (100 mM KPO4, 0.1% BSA, 1 mM DTT) and mixed in a 384 well plate (white opaque polystyrene nontreated flat-bottom well), and reaction was carried out at room temperature for 15 minutes. To induce CYP4A reaction, 5 mM Luciferin-ME, NADPH Regeneration system (10× sol. A, 20× sol. B in assay buffer, Cat. Number: V865B, Promega) were sequentially added and mixed, and the reaction was carried out at room temperature for 30 minutes. Then, Luciferin Detection reagent was added thereto and reacted at room temperature for 15 minutes to stop the CYP4A reaction and induce a luminescence reaction. Finally, after measuring the luminescence value using a microplate reader, the inhibition of CYP4A activity by the compounds was evaluated by comparing the luminescence value from each well.
In the case of `Cc1cc(N2CCN(C(=O)C3CCCN(S(=O)(=O)c4cccs4)C3)CC2)c2ccccc2n1` (stereo not shown) [Example 127, (4-(2-methylquinolin-4-yl)piperazin-1-yl)(1-(thiophen-2-ylsulfonyl)piperidin-3-yl)methanone], the inhibition at 5 µM lay within 50 to 70%.
Same read-out and setting: under `COc1ccc(C(=O)N2CCCC(C(=O)N3CCN(c4cc(C(F)(F)F)nc5ccccc45)CC3)C2)cc1` (stereo not shown) [Example 99, (1-(4-methoxybenzoyl)piperidin-3-yl)(4-(2-(trifluoromethyl)quinolin-4-yl)piperazin-1-yl)methanone] stands 50 to 70%; under `COc1ccc(C(=O)N2CCCC(C(=O)N3CCN(c4ccnc5cc(OC)ccc45)CC3)C2)cc1` (stereo not shown) [Example 94, (4-(7-methoxyquinolin-4-yl)piperazin-1-yl)(1-(4-methoxyphenylcarbonyl)piperidin-3-yl)methanone], 50 to 70%.
In the case of `COc1ccc(C(=O)N2CCCC(C(=O)N3CCN(c4ccnc5cc(Cl)ccc45)CC3)C2)cc1` (stereo not shown) [Example 88, (4-(7-chloroquinolin-4-yl)piperazin-1-yl)(1-(4-methoxyphenylcarbonyl)piperidin-3-yl)methanone], the inhibition at 5 µM lay within 50 to 70%.
`CC(=O)Nc1ccc(C(=O)N2CCCC(C(=O)N3CCN(c4cc(C(F)(F)F)nc5ccccc45)CC3)C2)cc1` (stereo not shown) [Example 95, N-(4-(3-(1-(2-(trifluoromethyl)quinolin-4-yl)piperazine-4-carbonyl)piperidine-1-carbonyl)phenyl)acetamide]: the inhibition at 5 µM lay in the range of 50 to 70%.

The assay is the same for the next values; noted with them: Compound concentration 5 μM; 70%-90%; read-out: % Inhibition 70%-90%.
For the compound `CN(C)c1ccc(S(=O)(=O)N2CCCC(C(=O)N3CCN(c4ncnc5ccccc45)CC3)C2)cc1` (stereo not shown) [Example 77], the inhibition at 5 µM lay in the range of 70 to 90%.
Still for that read-out and setting: under `COc1ccc(C(=O)N2CCCC(C(=O)N3CCN(c4ccnc5cc(F)ccc45)CC3)C2)cc1` (stereo not shown) [Example 110, (4-(7-fluoroquinolin-4-yl)piperazin-1-yl)(1-(4-methoxybenzoyl)piperidin-3-yl)methanone] stands 70 to 90%; under `COc1ccc2c(N3CCN(C(=O)C4CCCN(C(=O)c5ccncc5)C4)CC3)ccnc2c1` (stereo not shown) [Example 93, (4-(7-methoxyquinolin-4-yl)piperazin-1-yl)(1-(pyridine-4-ylcarbonyl)piperidin-3-yl)methanone], 70 to 90%; under `CC(C)n1cnc(S(=O)(=O)N2CC[C@H](C(=O)N3CCN(c4ccnc5cc(F)ccc45)CC3)C2)n1` [Example 141], 70 to 90%.
For the compound `O=C(c1ccc(F)cc1)N1CCCC(C(=O)N2CCN(c3ccnc4cc(F)ccc34)CC2)C1` (stereo not shown) [Example 106, (1-(4-fluorobenzoyl)piperidin-3-yl)(4-(7-fluoroquinolin-4-yl)piperazin-1-yl)methanone], the inhibition at 5 µM was 70 to 90%.

Still in this assay, the particulars now being: Compound concentration 5 μM; Greater than 90%; read-out: % Inhibition Greater than 90%.
Turning to `O=C([C@H]1CCN(S(=O)(=O)c2cccnc2)C1)N1CCN(c2ccnc3cc(F)ccc23)CC1` [Example 156, (S)-(4-(7-fluoroquinolin-4-yl)piperazin-1-yl)(1-(pyridin-3-ylsulfonyl)pyrrolidin-3-yl)methanone], the inhibition at 5 µM was greater than 90%.
Regarding `O=C([C@H]1CCN(S(=O)(=O)c2ccccn2)C1)N1CCN(c2ccnc3cc(F)ccc23)CC1` [Example 157, (S)-(4-(7-fluoroquinolin-4-yl)piperazin-1-yl)(1-(pyridin-2-ylsulfonyl)pyrrolidin-3-yl)methanone], the inhibition at 5 µM was greater than 90%.
The same measure, in the same setting: in the case of `O=C(C1CCN(S(=O)(=O)c2ccc(-c3ccncc3)cc2)CC1)N1CCN(c2ccnc3cc(F)ccc23)CC1` [Example 57, (4-(7-fluoroquinolin-4-yl)piperazin-1-yl)(1-((4-(pyridin-4-yl)phenyl)sulfonyl)piperidin-4-yl)methanone] it was 0%; in that of `Cc1nc(S(=O)(=O)N2CC[C@H](C(=O)N3CCN(c4ccnc5cc(F)ccc45)CC3)C2)n[nH]1` [Example 166, (S)-(4-(7-fluoroquinolin-4-yl)piperazin-1-yl)(1-((5-methyl-1H-1,2,4-triazol-3-yl)sulfonyl)pyrrolidin-3-yl)methanone], greater than 90%; in that of `O=C(C1CCCN(S(=O)(=O)c2ccc(Cl)nc2)C1)N1CCN(c2ccnc3cc(F)ccc23)CC1` (stereo not shown) [Example 59, (1-((6-chloropyridin-3-yl)sulfonyl)piperidin-3-yl)(4-(7-fluoroquinolin-4-yl)piperazin-1-yl)methanone], greater than 90%.
Same read-out and setting: under `Cn1ccnc1S(=O)(=O)N1CCCC(C(=O)N2CCN(c3ccnc4ccccc34)CC2)C1` (stereo not shown) [Example 120, (1-(1-methyl-1H-imidazol-2-ylsulfonyl)piperidin-3-yl)(4-(quinolin-4-yl)piperazin-1-yl)methanone] stands greater than 90%; under `Cc1noc(C)c1S(=O)(=O)N1CCC(C(=O)N2CCN(c3ccnc4ccccc34)CC2)C1` (stereo not shown) [Example 39, (1-((3,5-dimethylisoxazol-4-yl)sulfonyl)pyrrolidin-3-yl)(4-(quinolin-4-yl)piperazin-1-yl)methanone], greater than 90%; under `CC(=O)Nc1ccc(S(=O)(=O)N2CCC(C(=O)N3CCN(c4ccnc5ccccc45)CC3)C2)cc1` (stereo not shown) [Example 21, N-(4-((3-(4-(quinolin-4-yl)piperazine-1-carbonyl)pyrrolidin-1-yl)sulfonyl)phenyl)acetamide], greater than 90%.
Regarding `CC(=O)Nc1cccc(S(=O)(=O)N2CC(C(=O)N3CCN(c4ccnc5cc(F)ccc45)CC3)C2)c1` [Example 73, N-(3-((3-(4-(7-fluoroquinolin-4-yl)piperazine-1-carbonyl)azetidin-1-yl)sulfonyl)phenyl)acetamide], the inhibition at 5 µM was greater than 90%.
On the same count and under the same terms, under `Cn1cc(S(=O)(=O)N2CCC(C(=O)N3CCN(c4ccnc5ccccc45)CC3)C2)cn1` (stereo not shown) [Example 44, (1-((1-methyl-1H-pyrazol-4-yl)sulfonyl)pyrrolidin-3-yl)(4-(quinolin-4-yl)piperazin-1-yl)methanone] stands greater than 90%.
Take `O=C(C1CCN(S(=O)(=O)c2cccc(F)n2)C1)N1CCN(c2ccnc3ccccc23)CC1` (stereo not shown) [Example 52, (1-((6-fluoropyridin-2-yl)sulfonyl)pyrrolidin-3-yl)(4-(quinolin-4-yl)piperazin-1-yl)methanone]: the inhibition at 5 µM is greater than 90%.
`O=C(C1CN(S(=O)(=O)c2cccc([N+](=O)[O-])c2)C1)N1CCN(c2ccnc3cc(F)ccc23)CC1` [Example 71, (4-(7-fluoroquinolin-4-yl)piperazin-1-yl)(1-((3-nitrophenyl)sulfonyl)azetidin-3-yl)methanone]: the inhibition at 5 µM was greater than 90%.
In the case of `O=C(C1CCN(S(=O)(=O)c2ncn[nH]2)C1)N1CCN(c2ccnc3ccccc23)CC1` (stereo not shown) [Example 43, (1-((1H-1,2,4-triazol-5-yl)sulfonyl)pyrrolidin-3-yl)(4-(quinolin-4-yl)piperazin-1-yl)methanone], the inhibition at 5 µM was greater than 90%.
On the same count and under the same terms, under `O=C(C1CCN(S(=O)(=O)c2ccc(-c3ccc(O)cc3)nc2)C1)N1CCN(c2ccnc3ccccc23)CC1` (stereo not shown) [Example 28, (1-((6-(4-hydroxyphenyl)pyridin-3-yl)sulfonyl)pyrrolidin-3-yl)(4-(quinolin-4-yl)piperazin-1-yl)methanone] stands greater than 90%.

The same assay, now with this note: Compound concentration 5 μM; Less than 50%; read-out: % Inhibition Less than 50%.
In the case of `O=C(C1CCCN(C(=O)C2CCCCC2)C1)N1CCN(c2ccnc3ccccc23)CC1` (stereo not shown) [Example 114, (1-(cyclohexylcarbonyl)piperidin-3-yl)(4-(quinolin-4-yl)piperazin-1-yl)methanone], the inhibition at 5 µM is less than 50%.

The values above are taken from patent publication US12612384B2, “Heterocyclic CYP4A inhibitor compounds and compositions thereof” (MBD CO., LTD., priority 2021, dated 2026).
